“And” between values parts separate entries of the source, which are not always exact repeats. Identical values can stand only once. Like-named read-outs stand apart in the source and are kept apart here.
Experiments:
[1] = system: renal progenitor cells (lhx1a expression); test: In situ hybridization for lhx1a expression in 10-somite embryos (renal progenitor cell expansion); format: in vivo; conditions: for embryos with expanded lhx1a expression (% expansion) / lhx1a expansion class, 3 μM: 3 μM from 2 hpf, 10-somite embryos; for lhx1a expansion class, 800 nM: 800 nM from 2 hpf; for lhx1a expansion class, 200 nM: 200 nM from 2 hpf; for lhx1a expansion class, 400 nM: 400 nM from 2 hpf; for Expansion of Cells, 200 nM / Expansion of Cells, 800 nM / Expansion of Cells, 1.5 μM / Expansion of Cells, 400 nM: lhx1a in situ hybridization, includes repeats* and recounts
Experimental: (§1) PTBA was synthesized as described below. Hydroxyurea and aphidicolin were obtained from Sigma-Aldrich.
(§2) In situ hybridization and immunocytochemistry: In situ hybridization was performed as previously described with some modifications. 142 Hybridization temperature was 65° C. Embryos were blocked in 2% blocking reagent (Roche) with 5% sheep serum in MAB (100 mM maleic acid and 150 mM NaCl [pH 7.5]). Whole-mount immunocytochemistry with 1:25 mouse anti-α6F antibody (Developmental Studies Hybridoma Bank) and 1:100 Cy3 secondary antibody (Jackson ImmunoResearch) was performed as described previously. 108 Embryos were embedded in JB-4 for sectioning per the manufacturer's instructions (Polysciences), sectioned at 5 μm, and mounted with Cytoseal 60 (Richard-Allan Scientific).
The remaining PTBA analogs were synthesized.
In situ hybridization for lhx1a was performed as described above. […] Compounds were classified as effective, partially-effective or ineffective based on comparison to the effects of PTBA at a given concentration.
Testing of the compounds is on-going, but for those tested, Table 3 provides first pass EC50s based upon colormetric in situ hybridizations for the Lhx1a mRNA expression levels. After the procedure is run, in situ hybridization is done for the lhx1 mRNA expression and the number of embryos that show an expanded kidney field is manually counted to establish the percent of embryos showing expansion. Then the EC50 is determined by plotting the percent expansion in Excel, graphing the results and using the trendline function to determine the 50 percent point. […] For UPHD-00186, the 4 values for EC50 are shown in Table 3 for the corresponding expression in zebrafish embryos employed an artificial intelligence-based image analysis method termed cognition network technology (CNT) for n=4.

zebrafish larvae = test: Phenotypic scoring of edema and survival in zebrafish larvae at 72 hpf; format: in vivo; conditions: for larval phenotype in phenotypic screen of analogs: 3 μM, 2 to 72 hpf; for phenotype in initial chemical screen: 10 μM, larvae at 72 hpf
From the text: as §1
Wild type: no visible edema or developmental delay.

[2] = system: pax2a, pax8 expression (kidney field); test: In situ hybridization for renal progenitor markers pax2a, pax8 / kidney field; format: in vivo, zebrafish; conditions: screen hits, data not shown
Experimental: as §1, §2

[3] = system: human HDACs (HeLa cell nuclear extract); test: Fluorescence histone deacetylation assay with HeLa cell nuclear extract; format: biochemical; conditions: 5 mM compound, 10 μg HeLa extract
Experimental: To evaluate this in vitro, the deacetylation of a fluorescent peptide substrate was measured in the presence of human HDACs.
In vitro HDAC activity assays were performed using a fluorescence HDAC assay kit (Active Motif) according to the manufacturer's instructions. For maintaining compound solubility at 5 mM, the final DMSO concentration in all assay wells was increased to 5%. Fluorescence was detected using an M5 Plate Reader ([…])

[4] = system: mouse models of unilateral ureteral obstruction (UUO); test: Unilateral ureteral obstruction (UUO); format: in vivo; conditions: IP days 0 to 6, kidneys harvested at day 7
From the text: The model of unilateral ureteral obstruction generates progressive renal fibrosis. Surgically created UUO can be experimentally manipulated with respect to timing, severity, and duration, while reversal of the obstruction permits the study of recovery.
FIG. 47 represents the results of the testing of compounds UPHD-00022, UPHD-00025 (PTBA), UPHD-00029, UPHD-00036, and UPHD-00186, for their efficacy in mouse models of unilateral ureteral obstruction (UUO) as follows: in the UUO models, one ureter was ligated for 7 days and compounds were delivered via IP for days 0 to 6. At day 7 kidneys were harvested for Sirius red staining. […] Therefore, in the models tested, the only compound proven to be effective in all models and with significant delayed onset of treatment is UPHD-186.

[5] = Danio rerio, 800 nM, read-out: embryos with expanded lhx1a expression (% expansion)
[6] = Danio rerio, 400 nM, read-out: embryos with expanded lhx1a expression (% expansion)

## 2-amino-PTBA [Compound 2-amino-PTBA, reference compound]
[1]
  embryos with expanded lhx1a expression (% expansion): no expansion

## O=C(O)c1cccc(Sc2ccccc2)c1 [3-(phenylthio)benzoic acid, reference compound]
[1]
  embryos with expanded lhx1a expression (% expansion): no expansion

## O=C(O)CCCSc1ccc2ccccc2c1 [4-(naphthalen-2-ylthio)butanoic acid, reference compound]
[1]; listed as 4-(napthalen-2-ylthio)butanoic acid
  embryos with expanded lhx1a expression (% expansion): no expansion

## O=C(CCCSc1ccc(Cl)cc1)NO [4-[(4-chlorophenyl)thio]-N-hydroxybutanamide]
[1]
  lhx1a expansion class, 800 nM: +/−

## O=C(O)CCCCc1ccccc1 [5-phenylpentanoic acid, reference compound]
[1]
  embryos with expanded lhx1a expression (% expansion): no expansion

## Cn1cc(C(=O)Cc2ccccc2)cc1/C=C/C(=O)NO [APHA compound 8, reference compound]
[1]
  lhx1a expansion class, 3 μM: −

## Nc1ccccc1NC(=O)c1ccc(CNC(=O)OCc2cccnc2)cc1 [MS-275, reference compound]
Zebrafish larvae
  larval phenotype in phenotypic screen of analogs: showed no effect on zebrafish embryos
[1]
  lhx1a expansion class, 3 μM: −

## O=C(CCCSc1ccccc1)NO [N-hydroxy-4-(phenylthio)butanamide]
[1]
  lhx1a expansion class, 800 nM: +/−

## Cc1ccc(SCCCC(=O)NO)cc1 [N-hydroxy-4-[(4-methylphenyl)thio]butanamide]
[1]
  lhx1a expansion class, 200 nM: −
  lhx1a expansion class, 400 nM: −
  lhx1a expansion class, 800 nM: +
[1]; [5]
  responders at 0.8 µM: 61%

## N=C(N)SCc1ccc(Cl)cc1Cl.O=[N+]([O-])c1c(O)c(Cl)cc(Cl)c1Cl [NSC35400]
Zebrafish larvae
  phenotype in initial chemical screen: generated pericardial edema
[2]
  effect on size of the kidney field / renal markers (in situ hybridization): did not affect the size of the kidney field

## COc1ccc(/C=C(\C#N)C(N)=O)c(OC)c1 [NSC134664]
Zebrafish larvae
  phenotype in initial chemical screen: generated pericardial edema
[2]
  effect on size of the kidney field / renal markers (in situ hybridization): did not affect the size of the kidney field

## N=C(N)c1ccc(N=Nc2c(O)ccc3c2[nH]c2ccccc23)cc1 [NSC357777]
Zebrafish larvae
  phenotype in initial chemical screen: generated pericardial edema
[2]
  effect on size of the kidney field / renal markers (in situ hybridization): did not affect the size of the kidney field

## O=C(O)CCCS(=O)(=O)c1ccccc1 [PSOBA, 4-(phenylsulfonyl)butanoic acid, reference compound]
[1]
  embryos with expanded lhx1a expression (% expansion): no ability to expand renal progenitor cells
[3]
  HDAC activity, % of the control value: 70%

## O=C(CCCCCCC(=O)Nc1ccccc1)NO [SAHA, reference compound]
Zebrafish larvae
  larval phenotype in phenotypic screen of analogs: showed no effect on zebrafish embryos
[1]
  lhx1a expansion class, 3 μM: −

## O=C(CCCSc1ccc(F)cc1)NO [UPHD-00029, 4-[(4-fluorophenyl)sulfanyl]-N-hydroxybutanamide]
[1]
  lhx1a expansion class, 200 nM: −
  lhx1a expansion class, 400 nM: +/−
  lhx1a expansion class, 800 nM: +
  Expansion of Cells, 200 nM: 6.25%
  Expansion of Cells, 800 nM: 60% and 33%
  Expansion of Cells, 1.5 μM: 82.4%
[1]; [6]
  responders at 0.4 µM: 35%
[1]; [5]
  responders at 0.8 µM: 60%
[4]
  fibrosis (Sirius red) and expression of fibrosis markers in UUO kidney: reduce both fibrosis and expression of fibrosis markers

## Nc1ccccc1NC(=O)CCCSc1ccccc1 [UPHD-00036, N-(2-aminophenyl)-4-(phenylsulfanyl)butanamide]
[4]
  fibrosis (Sirius red) and expression of fibrosis markers in UUO kidney: reduce both fibrosis and expression of fibrosis markers

## O=C(CCCCCSc1ccccc1)Nc1ccccc1O [UPHD-00187, N-(2-hydroxyphenyl)-6-(phenylsulfanyl) hexanamide]
[1]
  Expansion of Cells, 400 nM: 58%
  Expansion of Cells, 800 nM: 52%
  Expansion of Cells, 1.5 μM: 52%

## Nc1ccccc1NC(=O)CCCCSCc1ccccc1 [UPHD-00188, N-(2-aminophenyl)-5-(benzysulfanyl) pentanamide]
[1]
  Expansion of Cells, 800 nM: 0%
  Expansion of Cells, 1.5 μM: 0%

## Nc1ccccc1NC(=O)CCCSCCc1ccccc1 [UPHD-00190, N-(2-aminophenyl)-4-[(2-phenylethyl)sulfanyl]butanamide]
[1]; 0.055 μM
  expansion: 72%
[1]
  Expansion of Cells, 200 nM: 50%
  Expansion of Cells, 400 nM: 0%
  Expansion of Cells, 800 nM: 0%
  Expansion of Cells, 1.5 μM: 0%

## CCC(=O)CCCCC[C@@H]1NC(=O)[C@H]2CCCCN2C(=O)[C@H]([C@@H](C)CC)NC(=O)[C@H](Cc2cn(OC)c3ccccc23)NC1=O [apicidin, reference compound]
[1]
  lhx1a expansion class, 200 nM: −
  lhx1a expansion class, 400 nM: +/−
  lhx1a expansion class, 800 nM: XX^1
[1]; 800 nM, n=36
  embryos surviving treatment: 31%
  treated embryos killed: 69%
[1]; 1.5 μM
  lethality before the 10-somite stage: lethal
[1]; 3 μM
  lethality before the 10-somite stage: killed all treated embryos
[1]; Danio rerio, read-out: embryos with expanded lhx1a expression (% expansion), 400 nM
  responders at 0.4 µM: 22%

## CCC(C)OC(=O)CCCSc1ccccc1 (stereo not shown) [butan-2-yl 4-(phenylthio)butanoate]
[1]
  lhx1a expansion class, 800 nM: +/−

## COC(=O)CCCSc1ccc(F)cc1 [methyl 4-[(4-fluorophenyl)thio]butanoate]
[1]
  lhx1a expansion class, 200 nM: +/−
  lhx1a expansion class, 400 nM: +/−
  lhx1a expansion class, 800 nM: +
[1]; 3 μM
  lethality before the 10-somite stage: killed all treated embryos
[1]; Danio rerio, 200 nM, read-out: embryos with expanded lhx1a expression (% expansion)
  responders at 0.2 µM: 22%
[1]; [6]
  responders at 0.4 µM: 26%
[1]; [5]
  responders at 0.8 µM: 64%

## COC(=O)CCCSc1ccc(C)cc1 [methyl 4-[(4-methylphenyl)thio]butanoate]
[1]
  lhx1a expansion class, 200 nM: −
  lhx1a expansion class, 400 nM: −
  lhx1a expansion class, 800 nM: +
[1]; [5]
  responders at 0.8 µM: 49%

## CCCOC(=O)CCCSc1ccccc1 [propyl 4-(phenylthio)butanoate]
[1]
  lhx1a expansion class, 800 nM: +/−

## CC(C)(C)OC(=O)CCCSc1ccccc1 [tert-butyl 4-(phenylthio)butanoate]
Zebrafish larvae
  larval phenotype in phenotypic screen of analogs: did not cause a statistically-significant decrease in the number of wild-type larval phenotypes

## O=C(CCCCCCC(=O)Nc1ccc([C@H]2O[C@@H](CSc3nc(-c4ccccc4)c(-c4ccccc4)o3)C[C@@H](c3ccc(CO)cc3)O2)cc1)NO [tubacin]
Zebrafish larvae
  larval phenotype in phenotypic screen of analogs: appeared wild-type

## CCCC(CCC)C(=O)O [valproic acid]
Zebrafish larvae
  larval phenotype in phenotypic screen of analogs: generated edemic and/or lethal phenotypes
